Test results as given in article PMC8879119, “α-Glucosidase Inhibitory Activity and Anti-Adipogenic Effect of Compounds from Dendrobium delacourii” (Molecules, 2022).
Like-named read-outs stand apart in the source and are kept apart here. One block for each compound: values may come before it.

Experiments:
PPARγ = experiment: Western blot of PPARγ in differentiating 3T3-L1 cells; assay type: cell-based, Mouse; details: 20 µM, 38 h and 48 h, versus untreated control
Description: (§1) Adipogenesis involves a network of transcription factors that contribute to adipocyte differentiation and lipid accumulation. Although the adipogenic gene CCAAT-enhancer-binding protein beta (C/EBPβ) is expressed soon after exposure to the adipogenic inducers, the upregulation of PPARγ and C/EBPα is acquired after 36–48 h of the induction. In this regard, the translational level of PPARγ and C/EBPα was examined to elucidate the anti-adipogenic mechanism in preadipocyte 3T3-L1 cells cultured with 20 µM densifloral B (3) at both early (38 h) and late (48 h) stage. Western blot analysis indicated the prolong expression of PPARγ and C/EBPα, the adipogenic transcription factors, in 3T3-L1 cells from early until late stage of adipogenic process. […]
(§2) After the indicated treatment, 3T3-L1 cells were washed with phosphate-buffered saline (PBS, pH 7.4), then the cell membranes were broken using RIPA buffer supplemented with a protease inhibitor cocktail. After incubation on ice for 45 min, the cell lysates were centrifuged at 12,000 rpm at 4 °C for 15 min to collect the clear supernatant containing cellular protein, which was measured for total protein content using a BCA assay kit. […] The reactive protein signals exposed with chemiluminescent substrates were captured and quantified using Chemiluminescent ImageQuant LAS 4000 (GE Healthcare Bio-Sciences AB, Björkgatan, Uppsala, Sweden).

3T3-L1 cells [1] = experiment: MTT viability assay in preadipocytes; assay type: cell-based, Mouse; details: 20 µM, 48 h
Description: To evaluate the effect of D. delacourii extracts on cell viability, 3T3-L1 preadipocytes were seeded into 96-well plates at density of 2 × 10^3 cells/well and allowed to attach overnight at 37 °C. Then, the cells were further cultured with extracts (5 μg/mL), compounds (20 μM), or left untreated for 48 h before adding of 0.45 mg/mL MTT solution to assess cell viability. After incubation for 3 h at 37 °C and kept from light, the optical density (OD) of the purple formazan product dissolved in DMSO was measured at 570 nm using a microplate reader (Anthros, Durham, NC, USA). The relative OD ratio of treated to non-treated cells was presented as percentage cell viability.

p-AMPKβ1 = experiment: Western blot of p-AMPKβ1 in differentiating 3T3-L1 cells; assay type: cell-based, Mouse; details: 20 µM, 38 h and 48 h
Text: (§3) Recent reports indicate that the downregulation of PPARγ and C/EBPα are correlated with the activation of AMPKα/β and ACC [43]. […] The increased expression level of p-ACC/ACC (Figure 5b), p-AMPKα/AMPKα (Figure 5c), and p-AMPKβ1/AMPKβ1/2 (Figure 5f) was correlated with suppression of PPARγ and C/EBPα protein expression (Figure 4e) as well as lipid accumulation in differentiated 3T3-L1 cells (Figure 4a). The results presented in this study correspond with the evidence of the stimulation of AMPK and ACC protein being associated with the inhibition of 3T3-L1 adipocyte differentiation.
as §2, with “kit. The total protein (30 µg) from each sample was loaded and separated onto 10% sodium dodecyl sulfate-polyacrylamide gel electrophoresis (SDS-PAGE).” for “kit.”

p-ACC = experiment: Western blot of p-ACC in differentiating 3T3-L1 cells; assay type: cell-based, Mouse; details: 20 µM, 38 h and 48 h
Text: as §3
as §2, with “kit. The total protein (30 µg) from each sample was loaded and separated onto 10% sodium dodecyl sulfate-polyacrylamide gel electrophoresis (SDS-PAGE).” for “kit.”

p-Akt = experiment: Western blot of p-Akt in differentiating 3T3-L1 cells; assay type: cell-based, Mouse; details: 20 µM, 38–48 h
Text: as §3
as §2, with “kit. The total protein (30 µg) from each sample was loaded and separated onto 10% sodium dodecyl sulfate-polyacrylamide gel electrophoresis (SDS-PAGE).” for “kit.”

p-GSK3β/GSK3β = experiment: Western blot of p-GSK3β/GSK3β in differentiating 3T3-L1 cells; assay type: cell-based, Mouse; details: 20 µM, 38–48 h
Text: Due to the expression of adipogenic transcription factors also modulated via Akt/GSK3β [46, 47, 48], the alteration of the p-GSK3β/GSK3β level was additionally examined in densifloral B-treated 3T3-L1 cells. The phosphorylation by p-Akt results in the inactivation of the GSK3β degradation complex following the initiation of targeted gene expression.
as §2, with “kit. The total protein (30 µg) from each sample was loaded and separated onto 10% sodium dodecyl sulfate-polyacrylamide gel electrophoresis (SDS-PAGE).” for “kit.”

3T3-L1 cells [2] = experiment: adipocyte differentiation / lipid accumulation by oil red O staining; assay type: cell-based, Mouse; details: for IC50: Mus musculus, 3T3-L1, 0–50 µM, oil red O staining, 3T3-L1 cells; for reduction in oil red O staining: differentiated 3T3-L1 cells
Description: Mouse embryonic preadipocyte 3T3-L1 cells were cultured in DMEM containing 10% FBS, 100 units/mL of penicillin/streptomycin, and 2 mmol/L of L-glutamine under humidified conditions of 5% CO2 at 37 °C until 70–80% confluence was reached. For differentiation into adipocyte, preadipocyte 3T3-L1 cells were incubated with differentiation media composed of 10% FBS, 0.5 mM isobutylmethylxanthine, 1 μM dexamethasone, and 5 µg/mL insulin in DMEM with or without test compound for 2 days. Then, the differentiation media was replaced with culture media containing 5 µg/mL of insulin. After further incubation for 2 days, the cells were maintained in complete DMEM, which was changed every 2 days until adipocytes containing lipid droplets were observed under microscope.
The lipid droplets presenting in differentiated adipocytes were detected via oil red O staining. After the differentiation process, 3T3-L1 cells were fixed with 10% formalin for 45 min and further incubated with oil red O solution at room temperature for 1 h. After washing with 60% isopropanol for three times, oil red O-stained cells were captured using a Nikon Ts2 inverted optical microscope (Tokyo, Japan). For quantification, cellular oil red O was extracted using absolute isopropanol for measurement of OD at 570 nm by microplate reader (Anthros, Durham, NC, USA). The percentage of oil red O staining was calculated relative to the total protein content determined by BCA assay.

p-AMPKα = experiment: Western blot of p-AMPKα in differentiating 3T3-L1 cells; assay type: cell-based, Mouse; details: 20 µM, 38 h and 48 h
Text: as §3
as §2, with “kit. The total protein (30 µg) from each sample was loaded and separated onto 10% sodium dodecyl sulfate-polyacrylamide gel electrophoresis (SDS-PAGE).” for “kit.”

C/EBPα = experiment: Western blot of C/EBPα in differentiating 3T3-L1 cells; assay type: cell-based, Mouse; details: 20 µM, 38 h and 48 h, versus untreated control
Description: as §1, §2

α-glucosidase [3] = target: T1, α-glucosidase (Saccharomyces cerevisiae, UniProt P53341); experiment: biochemical
T1 construct: purchased Sigma-Aldrich (St. Louis, MO, USA)
T1 sequence (P53341 whole entry): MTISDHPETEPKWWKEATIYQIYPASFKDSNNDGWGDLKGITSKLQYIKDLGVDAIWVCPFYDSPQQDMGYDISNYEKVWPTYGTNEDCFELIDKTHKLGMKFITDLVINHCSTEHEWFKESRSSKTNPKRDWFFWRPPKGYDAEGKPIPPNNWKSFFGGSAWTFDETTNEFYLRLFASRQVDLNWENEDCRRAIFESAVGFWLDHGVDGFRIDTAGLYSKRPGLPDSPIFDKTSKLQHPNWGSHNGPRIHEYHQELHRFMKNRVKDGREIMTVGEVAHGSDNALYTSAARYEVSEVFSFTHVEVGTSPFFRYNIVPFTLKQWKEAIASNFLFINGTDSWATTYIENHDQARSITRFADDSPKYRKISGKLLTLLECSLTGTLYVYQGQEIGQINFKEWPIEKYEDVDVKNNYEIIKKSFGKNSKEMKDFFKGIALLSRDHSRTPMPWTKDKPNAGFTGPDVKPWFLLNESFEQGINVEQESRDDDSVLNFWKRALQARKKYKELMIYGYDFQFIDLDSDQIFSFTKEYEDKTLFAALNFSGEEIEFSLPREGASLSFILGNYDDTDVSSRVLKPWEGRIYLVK
Description: In this study, each compound was initially tested at 100 μg/mL.
(§4) Mass spectra were recorded on a Bruker micro TOF mass spectrometer (ESI-MS). NMR spectra were recorded on a Bruker Avance DPX-300FT-NMR spectrometer or a Bruker Avance III HD 500 NMR spectrometer. Vacuum-liquid column chromatography (VLC) and column chromatography (CC) were performed on silica gel 60 (Merck, Kieselgel 60, 70–320 mesh), silica gel 60 (Merck, Kieselgel 60, 230–400 mesh) (Darmstadt, Germany), and Sephadex LH-20 (25–100 μm, Pharmacia Fine Chemical Co. Ltd.) (Piscataway, NJ, USA). […] Mouse embryonic preadipocyte 3T3-L1 cells were acquired from the American Type Culture Collection (ATCC, Manassas, VA, USA). Dulbecco’s modified Eagle medium (DMEM), fetal bovine serum (FBS), penicillin/streptomycin, and L-glutamine were obtained from Gibco (Gaithersburg, MA, USA). Yeast alpha-glucosidase enzyme, p-nitrophenol-α-D-glucopyranoside, isobutylmethylxanthine, dexamethasone, MTT (methyl-thiazolyl-diphenyl-tetrazolium bromide), Hoechst33342, propidium iodide, dimethylsulfoxide (DMSO), and oil red O were purchased from Sigma-Aldrich (St. Louis, MO, USA). Insulin was obtained from Himedia (Mumbai, India). The radio-immunoprecipitation assay (RIPA) buffer, chemiluminescent substrates, and the bicinchoninic acid (BCA) protein assay kit were from Thermo Scientific (Rockford, IL, USA), and the nitrocellulose membranes were from Bio-Rad Laboratories (Hercules, CA, USA). All primary and secondary antibodies were purchased from Cell Signaling Technology (Danvers, MA, USA). Oxyresveratrol was provided by Prof. Kittisak Likhitwitayawuid.
The assay was based on the inhibition in the sample of α-glucosidase enzyme, which can release p-nitrophenol (PNP) from p-nitrophenyl-α-D-glucoside (PNPG) by hydrolysis. […] For IC50 determination, twofold serial dilution was performed for each sample. Each experiment was accomplished in triplicate. Data are expressed as mean ± SD.

α-glucosidase [4] = target: T1, α-glucosidase; experiment: biochemical; assay type: biochemical; details: for type of enzyme inhibition: Lineweaver–Burk plots; for Ki: from secondary plot of slopes versus inhibitor concentration, read-out: Ki (inhibitor constant)
Description: The experiment was performed by using Lineweaver–Burk plots of the reciprocal of velocity (1/V) against the reciprocal of substrate concentration (1/[S]) (Figure 2). […] A secondary plot of each compound was then constructed to evaluate the inhibition constant (Ki).
as §4
The kinetic study of enzyme inhibition was analyzed by the double reciprocal Lineweaver–Burk plot (1/V versus 1/[S]). […] The reaction was monitored every 5 min for a total time of 25 min and measured at 405 nm by a microplate reader. Each experiment was performed in triplicate. The Ki value was estimated by constructing a secondary plot which is plotted by the slopes of the double-reciprocal lines versus inhibitor concentration.

3T3-L1 cells [5] = experiment: cell death detection by Hoechst33342/propidium iodide costaining; assay type: cell-based; details: 20 µM, 48 h
Description: The cytotoxicity of D. delacourii extracts was confirmed via cell death detection using costaining of Hoechst33342 and propidium iodide. After 48 h incubation with indicated treatment, the cells were further incubated with nuclear staining solution containing 2 μg/mL of Hoechst33342 and 1 μg/mL of propidium iodide for 30 min. The mode of cell death was observed under a fluorescence microscope (Olympus IX51 with DP70, Olympus Corp., Shinjuku-ku, Tokyo, Japan).

[6] = read-out: α-Glucosidase inhibitory activity IC50
[7] = inhibitor dose 12 μM, substrate 0.25-2.0 mM

SMILES: COC1=CC(=O)c2c(ccc3cc(O)ccc23)C1=O [Densifloral B (3), densifloral B]
expression level of PPARγ (PPARγ): restrained
viability / cytotoxicity in 3T3-L1 cells (3T3-L1 cells [1]): no cytotoxicity
phosphorylated AMPKβ1 (p-AMPKβ1) (p-AMPKβ1): upregulated
phosphorylated ACC (p-ACC) (p-ACC): upregulated
activated Akt (p-Akt) (p-Akt): suppressed
p-GSK3β/GSK3β expression level (p-GSK3β/GSK3β): significantly lessened
IC50 (3T3-L1 cells [2]): 14.8 ± 1.6 µM
reduction in oil red O staining (3T3-L1 cells [2]; at 20 µM): ~65.2%
phosphorylated AMPKα (p-AMPKα) (p-AMPKα): upregulated
expression level of C/EBPα (C/EBPα): restrained

SMILES: COc1cc(O)c2c(c1)CCc1cc(Oc3c(OC)cc(O)c4c3CCc3cc(O)ccc3-4)ccc1-2 [Phoyunnanin E (10), phoyunnanin E]
IC50 (α-glucosidase [3]; [6]): 8.9 ± 0.8 µM
type of enzyme inhibition (α-glucosidase [4]): non-competitive
Ki (α-glucosidase [4]): 5.89 µM
Vmax (α-glucosidase [4]; [7]): 0.049 ∆OD/min
Vmax (α-glucosidase [4]; inhibitor dose 22 μM, substrate 0.25-2.0 mM): 0.024 ∆OD/min

SMILES: COC1=CC(=O)C2=C(CCc3cc(O)ccc32)C1=O [Ephemeranthoquinone (2), ephemeranthoquinone]
viability / cytotoxicity in 3T3-L1 cells (3T3-L1 cells [1]): significantly decreased viability
reduction in oil red O staining (3T3-L1 cells [2]; at 20 µM): approximately 64.7%

SMILES: Oc1cc(O)cc(/C=C/c2ccc(O)cc2O)c1 [oxyresveratrol, reference compound]
viability / cytotoxicity in 3T3-L1 cells (3T3-L1 cells [1]): no change
IC50 (3T3-L1 cells [2]): 21.1 ± 1.5 µM
oil red O staining percentage compared with control (in words) (3T3-L1 cells [2]; at 20 µM): lower oil red O staining percentage
cell death (3T3-L1 cells [5]): no change

IC50 (α-glucosidase [3]; [6]): 191 ± 6.8 µM
SMILES: COc1cc(O)cc(CCc2ccc(O)c(OC)c2)c1 [Gigantol (6), gigantol]

SMILES: COc1cc(O)c2c(c1-c1c(OC)cc(O)c3c1CCc1cc(O)ccc1-3)CCc1cc(O)ccc1-2 [4,4′,7,7′-tetrahydroxy-2,2′-dimethoxy-9,9′,10,10′-tetrahydro-1,1′-biphenanthrene]
IC50 (α-glucosidase [3]): 18.4 ± 3.4 µM

SMILES: C[C@H]1O[C@H](O[C@H]2[C@H](O)[C@@H](O)[C@@H](O[C@H]3[C@H](O)[C@@H](O)C(O)O[C@@H]3CO)O[C@@H]2CO)[C@H](O)[C@@H](O)[C@@H]1N[C@H]1C=C(CO)[C@@H](O)[C@H](O)[C@H]1O (some centres unmarked) [Acarbose, acarbose, reference compound]
type of enzyme inhibition (α-glucosidase [4]): competitive type of inhibition
Km (α-glucosidase [4]; inhibitor dose 465 μM): 4.17 mM
Vmax (α-glucosidase [4]; inhibitor dose 465 μM): 0.10 ∆OD/min
Km (α-glucosidase [4]; inhibitor dose 930 μM): 6.47 mM
Vmax (α-glucosidase [4]; inhibitor dose 930 μM): 0.11 ∆OD/min

SMILES: COc1cc(O)c2c(c1)CCc1cc(O)c(-c3c(OC)cc(O)c4c3CCc3cc(O)ccc3-4)cc1-2 [Phoyunnanin C (11), phoyunnanin C]
IC50 (α-glucosidase [3]; [6]): 12.6 ± 0.9 µM
type of enzyme inhibition (α-glucosidase [4]): non-competitive
Ki (α-glucosidase [4]): 5.97 µM
Vmax (α-glucosidase [4]; [7]): 0.049 ∆OD/min
Vmax (α-glucosidase [4]; inhibitor dose 24 μM, substrate 0.25-2.0 mM): 0.023 ∆OD/min

IC50 (α-glucosidase [3]; [6]): 195 ± 9.6 µM
SMILES: COc1cc(O)c2c(c1)CCc1cc(O)ccc1-2 [Lusianthridin (8), lusianthridin]

IC50 (α-glucosidase [3]; [6]): 390 ± 9.8 µM
SMILES: COc1cc(O)cc2ccc3cccc(O)c3c12 [Moscatin (4), moscatin]
